Measurements published in article PMC7155212 (Journal of Enzyme Inhibition and Medicinal Chemistry, 2020).
Values joined by “and” are separate entries in the source; they are usually repeats but may differ in a detail not shown here. Equal values may be shown once. Read-outs that look alike come from different tables or passages of the source.

Columns and labels:
[1] = In vitro antioxidant activity (DPPH radical scavenging); details: DPPH free radical scavenging, 30 min at 37 °C, mean ± SD (n = 3)
Method: The assay provides an assessment of the antioxidant activity due to free radical scavenging by measuring hydrogen atom (or one electron) donating activity. DPPH is a purple stable free radical that is reduced to a yellow-coloured diphenylpicryl hydrazine by an antioxidant. The spectrophotometric assay was carried out as described by the literature method with a slight modification. 100 μL of a sample solution was added to 100 μL of DPPH solution. Following 30 min of incubation at 37 °C and protection from light, the absorbance at 517 nm was determined using a microplate reader. Each group was measured three times in parallel to average. IC50 values were calculated. The percentage of DPPH radical scavenging rate of the target compound is calculated as follows: DPPH free radical scavenging effect (%)=[A0 – (A1−A2)]/A0×100% where A0 is the absorbance of blank group; A1 is the absorbance of sample group; A2 is the absorbance of sample blank group.

[2] = molecular target: AChE from electric eel (Electrophorus electricus, UniProt O42275); experiment: biochemical; format: biochemical; details: Ellman method, mean ± SD (n = 3)
Method: (§1) The anticholinesterase activity of the 3-arylbenzofuranone compounds was determined by the method of Ellman et al.[16] with slight modifications. […] Acetylthiocholine iodide and butyrylthiocholine iodide were used as substrates respectively. 5,5′-Dithiobis(2-nitrobenzoic acid) (DTNB) was used as the chromophoric reagent. To a 96-well plate, 120 µL of phosphate buffer solution (0.1 M, pH = 8.0, PBS), 20 µL of DTNB (3.3 mM in 0.1 M PBS, pH = 8.0) were added sequentially, 20 µL AChE solution (0.2 U/mL in 0.1 M PBS, pH = 8.0), 20 µL of different concentrations of the sample solution, shaken well, and incubated at 37 °C for 5 min. Then, 20 µL of substrate (5 mM in 0.1 M PBS, pH = 8.0) were added, shaken well, and incubated at 37 °C for 20 min. […] BChE inhibitory activity was assessed similarly using butyrylthiocholine iodide as the substrate. The sample solution was set to five concentration gradients and the experiment was repeated three times. […] Cholinesterase inhibitory effect (%)=[A0−(A1−A2)]/A0×100% where A0 is the absorbance of blank group; A1 is the absorbance of sample group; A2 is the absorbance of sample blank group.

[3] = molecular target: BChE from equine serum (Equus caballus, UniProt P81908); experiment: biochemical; format: biochemical
Method: as §1

[4] = molecular target: T1, MAO-B (Rattus norvegicus, UniProt P19643); experiment: In vitro MAO inhibitory activity (Holt method, crude enzyme from rat liver); format: biochemical, Wistar rat
T1 construct: The crude enzyme was extracted from the liver of 200–250 g of Wistar rats; from tissue; host or cells: liver of Wistar rats (crude enzyme)
T1 sequence (P19643 1-520): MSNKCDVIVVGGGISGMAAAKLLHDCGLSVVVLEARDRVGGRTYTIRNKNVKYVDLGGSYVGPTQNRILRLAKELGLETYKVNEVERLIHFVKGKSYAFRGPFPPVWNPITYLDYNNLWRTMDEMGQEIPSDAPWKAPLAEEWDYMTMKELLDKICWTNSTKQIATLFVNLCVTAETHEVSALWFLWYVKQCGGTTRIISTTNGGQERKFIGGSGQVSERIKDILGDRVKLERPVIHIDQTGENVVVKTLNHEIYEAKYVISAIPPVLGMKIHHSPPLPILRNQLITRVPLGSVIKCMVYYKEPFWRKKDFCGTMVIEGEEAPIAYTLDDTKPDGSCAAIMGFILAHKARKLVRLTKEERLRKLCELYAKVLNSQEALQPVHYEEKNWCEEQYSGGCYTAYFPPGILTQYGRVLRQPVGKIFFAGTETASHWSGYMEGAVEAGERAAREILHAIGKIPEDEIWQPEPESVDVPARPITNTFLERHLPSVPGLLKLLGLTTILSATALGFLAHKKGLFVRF
Method: The MAO inhibitory activity of the 3-arylbenzofuranone compounds was determined by the method of Holt et al.[17] with slight modifications. The crude enzyme was extracted from the liver of 200–250 g of Wistar rats according to literature methods[18]^,[19]. The crude enzyme protein content was determined by the Bradford method using a Bradford Protein Assay Kit (Beyotime). The assay was performed in 0.2 M potassium phosphate buffer pH 7.6 on 96-well plates in 240 μl total volume. The chromogenic solution containing 1 mM vanillic acid, 0.5 mM 4-aminoantipyrine, and 4 U/ml horseradish peroxidase in 0.2 M potassium phosphate buffer pH 7.6 was mixed anew for each measurement. 40 μL of enzyme solution and 40 μL of sample solution were added to a 96-well plate. The solution was then incubated at 37 °C for 20 min. 120 μL of the 4-(trifluoromethyl) benzylamine solution and 40 μL of the chromogenic solution were added subsequently and incubated at 37 °C for 90 min. The absorbance was measured at 490 nm using a microplate reader, and the inhibition rate of MAO and the IC50 value of each sample were calculated according to the formula. The control group replaced the sample solution with PBS (0.2 M, pH = 7.6), the positive control replaced the sample with the positive drug, and the blank group replaced the substrate with PBS, and each group was measured three times in parallel to average. Monoamine oxidase inhibitory effect (%) = [(AC – AB) – (AS – ASB )]/(AC – AB)×100% where AC is the absorbance of control group; AB is the absorbance of blank group; AS is the absorbance of sample group; ASB is the absorbance of sample blank group.

[5] = read-out: IC50 value AChE inhibitory activity
[6] = equine serum BChE, Ellman method, mean ± SD (n = 3), read-out: IC50 value BuChE inhibitory activity
[7] = rat liver crude enzyme, 4-(trifluoromethyl)benzylamine substrate, mean ± SD (n = 3), read-out: IC50 value MAO-B inhibitory activity
[8] = IC50 value AChE inhibitory activity

AChE from electric eel, sequence (O42275 24-633): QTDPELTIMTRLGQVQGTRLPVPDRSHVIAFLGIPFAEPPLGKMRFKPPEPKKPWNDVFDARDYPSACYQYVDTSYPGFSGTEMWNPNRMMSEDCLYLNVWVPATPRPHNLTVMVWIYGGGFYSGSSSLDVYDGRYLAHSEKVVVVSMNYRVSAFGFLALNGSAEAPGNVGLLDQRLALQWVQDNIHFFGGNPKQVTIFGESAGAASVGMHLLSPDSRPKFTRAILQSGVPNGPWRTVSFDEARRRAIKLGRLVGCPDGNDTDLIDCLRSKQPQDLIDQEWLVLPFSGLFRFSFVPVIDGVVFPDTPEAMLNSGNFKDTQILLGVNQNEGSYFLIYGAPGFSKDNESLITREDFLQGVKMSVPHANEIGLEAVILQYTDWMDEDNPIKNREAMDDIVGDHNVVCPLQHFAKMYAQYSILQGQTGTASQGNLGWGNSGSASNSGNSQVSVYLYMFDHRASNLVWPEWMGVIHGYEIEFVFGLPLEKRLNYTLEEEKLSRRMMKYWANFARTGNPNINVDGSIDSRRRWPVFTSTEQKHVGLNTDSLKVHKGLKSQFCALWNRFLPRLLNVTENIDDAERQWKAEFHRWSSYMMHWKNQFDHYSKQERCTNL
BChE from equine serum, sequence (P81908 whole entry): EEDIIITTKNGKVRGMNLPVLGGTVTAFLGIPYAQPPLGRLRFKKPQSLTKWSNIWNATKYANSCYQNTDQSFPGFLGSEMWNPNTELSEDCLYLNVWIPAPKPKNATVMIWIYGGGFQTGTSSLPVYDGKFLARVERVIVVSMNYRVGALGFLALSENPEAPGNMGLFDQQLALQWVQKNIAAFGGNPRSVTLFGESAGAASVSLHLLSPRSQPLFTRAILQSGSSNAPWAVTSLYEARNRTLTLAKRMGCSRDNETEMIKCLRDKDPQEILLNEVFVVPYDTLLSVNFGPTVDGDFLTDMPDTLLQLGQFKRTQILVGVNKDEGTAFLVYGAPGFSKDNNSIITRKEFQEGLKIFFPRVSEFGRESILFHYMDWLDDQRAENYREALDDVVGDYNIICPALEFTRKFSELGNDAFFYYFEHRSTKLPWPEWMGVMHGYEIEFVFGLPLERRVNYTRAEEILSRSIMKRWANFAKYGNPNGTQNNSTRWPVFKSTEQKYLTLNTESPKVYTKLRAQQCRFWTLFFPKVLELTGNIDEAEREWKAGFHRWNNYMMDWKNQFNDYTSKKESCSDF

| Structure (SMILES) | IC50 [1] [µM] | IC50 [2, 5] | IC50 [3, 6] [µM] | IC50 [4, 7] [µM] | IC50 [2, 8] [µM] | IC50 [3] [µM] | IC50 [4] [µM] |
| --- | --- | --- | --- | --- | --- | --- | --- |
| O=C1O[C@H]([C@@H](O)CO)C(O)=C1O [Ascorbic acid, reference compound] | 7.69 ± 0.1 |  |  |  |  |  |  |
| COc1ccc(C2C(=O)Oc3cc(O)ccc32)cc1 (centres unmarked) [Compound 1, 6-Hydroxyl-3–(4′-methoxyphenyl)-benzofuranone] | 13.3 ± 0.27 | 50.6 ± 3.12 µM | > 200 | 61.3 ± 0.79 |  |  |  |
| COc1ccc(C2C(=O)Oc3ccc(O)cc32)cc1 (centres unmarked) [Compound 2, 5-Hydroxyl-3–(4′-methoxyphenyl)-benzofuranone] | > 100 | 4.15 ± 1.02 µM |  | 14.7 ± 0.78 |  |  |  |
| COc1ccc(C2C(=O)Oc3cc(OC)ccc32)cc1 (centres unmarked) [Compound 3, 6-Methoxy-3–(4′-methoxyphenyl)-benzofuranone] | 11.8 ± 0.18 | 80.5 ± 3.41 µM | > 200 | 298 ± 5.4 |  |  |  |
| COc1ccc(C2C(=O)Oc3ccc(OC)cc32)cc1 (centres unmarked) [Compound 4, 5-Methoxy-3–(4′-methoxyphenyl)-benzofuranone] | 33.1 ± 1.45 | < 1 µM and 0.74 µM | > 200 | 383 ± 5.08 |  |  |  |
| COc1ccc(C2C(=O)Oc3c2ccc(O)c3O)cc1 (centres unmarked) [Compound 5, 6,7-Dihydroxy-3–(4′-methoxyphenyl)-benzofuranone] | 5.51 ± 0.2 |  | > 200 | 22.48 ± 0.22 |  |  |  |
| COc1ccc(C2C(=O)Oc3cc(O)ccc32)cc1OC (centres unmarked) [Compound 6, 6-Hydroxy-3–(3′,4′-dimethoxyphenyl)-benzofuranone] |  | 24.4 ± 1.21 µM | > 200 | 48.6 ± 2.02 |  |  |  |
| COc1ccc(C2C(=O)Oc3cc(OC)c(O)cc32)cc1 (centres unmarked) [Compound 7, 5-Hydroxy-6-methoxy-3–(4′-methoxyphenyl)-benzofuranone] | 2.62 ± 0.21 | < 1 µM and 0.52 µM | 32.9 ± 0.76 | 91.13 ± 0.7 |  |  |  |
| COc1ccc(C2C(=O)Oc3c2ccc(OC)c3O)cc1 (centres unmarked) [Compound 8, 6-Methoxy-7-hydroxy-3–(4′-methoxyphenyl)-benzofuranone] | 5.96 ± 0.14 | 9.24 ± 0.62 µM | > 200 | 40.6 ± 1.92 |  |  |  |
| COc1ccc2c(c1)OC(=O)C2c1ccc(OC)c(OC)c1 (centres unmarked) [Compound 9, 6-Methoxy-3–(3′,4′-dimethoxyphenyl)-benzofuranone] | 17.2 ± 0.58 |  |  |  | 0.35 ± 0.03 | > 200 | 354 ± 5.05 |
| COc1ccc(C2C(=O)Oc3cc(OC)c(OC)cc32)cc1 (centres unmarked) [Compound 10, 5,6-Dimethoxy-3–(4′-methoxyphenyl)-benzofuranone] | 13.89 ± 0.11 | 28.7 ± 1.44 µM | > 200 | 493 ± 7.1 |  |  |  |
| COc1cc(C2C(=O)Oc3cc(O)ccc32)cc(OC)c1OC (centres unmarked) [Compound 11, 6-Hydroxy-3–(3′,4′,5′-trimethoxyphenyl)-benzofuranone] | 11.2 ± 0.24 | 48.24 ± 0.34 µM | > 200 | 38.6 ± 0.42 |  |  |  |
| COc1ccc(C2C(=O)Oc3c2ccc(OC)c3O)cc1OC (centres unmarked) [Compound 12, 6-Methoxy-7-hydroxy-3–(3′,4′-dimethoxyphenyl)-benzofuranone] | 1.6 ± 0.1 | 5.25 ± 0.44 µM | 180.9 ± 1.48 | 22.9 ± 0.73 |  |  |  |
| COc1cc(C2C(=O)Oc3ccc(O)cc32)cc(OC)c1OC (centres unmarked) [Compound 14, 5-Hydroxy-3–(3′,4′,5′-trimethoxyphenyl)-benzofuranone] | 5.11 ± 0.13 | 3.37 ± 0.17 µM | 128 ± 4.65 | 69.7 ± 1.26 |  |  |  |
| COc1ccc2c(c1)C(c1cc(OC)c(OC)c(OC)c1)C(=O)O2 (centres unmarked) [Compound 15, 5-Methoxy-3–(3′,4′,5′-trimethoxyphenyl)-benzofuranone] | 32.6 ± 0.42 | 2.54 ± 0.19 µM | > 200 | 215 ± 2.27 |  |  |  |
| COc1ccc2c(c1)OC(=O)C2c1cc(OC)c(OC)c(OC)c1 (centres unmarked) [Compound 16, 6-Methoxy-3–(3′,4′,5′-trimethoxyphenyl)-benzofuranone] | 18 ± 0.48 | 4.07 ± 0.19 µM | > 200 | > 500 |  |  |  |
| COc1ccc2c(c1)C(c1ccc(OC)c(OC)c1OC)C(=O)O2 (centres unmarked) [Compound 17, 5-Methoxy-3–(2′,3′,4′-trimethoxyphenyl)-benzofuranone] | 29.2 ± 0.31 | 42.3 ± 4.01 µM | > 200 | 82.7 ± 1.31 |  |  |  |
| COc1ccc2c(c1)OC(=O)C2c1ccc(OC)c(OC)c1OC (centres unmarked) [Compound 18, 6-Methoxy-3–(2′,3′,4′-trimethoxyphenyl)-benzofuranone] | 64.5 ± 1.29 | 124 ± 2.17 µM | > 200 | 180.3 ± 1.32 |  |  |  |
| COc1ccc(C2C(=O)Oc3cc(OC)c(OC)cc32)cc1OC (centres unmarked) [Compound 19, 5,6-Dimethoxy-3–(3′,4′-dimethoxyphenyl)-benzofuranone] | 12.6 ± 0.14 |  |  |  | 36.5 ± 0.51 | > 200 | 146 ± 1.83 |
| COc1cc(C2C(=O)Oc3c2ccc(O)c3O)cc(OC)c1OC (centres unmarked) [Compound 20, 6,7-Dihydroxy−3–(3′,4′,5′-trimethoxyphenyl)-benzofuranone] | 42.6 ± 2.58 | 0.089 ± 0.01 µM | > 200 | 149 ± 3.39 |  |  |  |
| COc1cc2c(cc1O)C(c1cc(OC)c(OC)c(OC)c1)C(=O)O2 (centres unmarked) [Compound 21, 5-Hydroxy-6-methoxy-3–(3′,4′,5′-trimethoxyphenyl)-benzofuranone] | 5.35 ± 0.33 | 2.38 ± 0.2 µM | 146 ± 3.05 | > 500 |  |  |  |
| COc1ccc2c(c1O)OC(=O)C2c1cc(OC)c(OC)c(OC)c1 (centres unmarked) [Compound 22, 6-Methoxy-7-hydroxy-3–(3′,4′,5′-trimethoxyphenyl)-benzofuranone] | 6.44 ± 0.12 | 2.03 ± 0.09 µM | > 200 | 30.3 ± 0.65 |  |  |  |
| COc1cc2c(cc1O)C(c1cc(OC)c(OC)c(OC)c1)C(=O)O2 (centres unmarked) [Compound 23, 5-Hydroxy-6-methoxy-3–(3′,4′,5′-trimethoxyphenyl)-benzofuranone] | 11.9 ± 0.16 | 26 ± 1.26 µM | > 200 | 43.9 ± 1.26 |  |  |  |
